# Measured values published in US5656288A, “Stable pharmaceutical compositions containing tiludronate hydrates and process for producing the pharmaceutical compositions” (Sanofi Winthrop, Inc., priority 1995, dated 1997).
# Entries after “also recorded” stand apart in the source; their conditions may differ.
# How the values were obtained:
# [1] = Hygroscopicity: water content by TGA after storage at defined relative humidity; type: physicochemical
# Protocol: (§1) Samples of disodium tiludronate hemihydrate were stressed at humidity levels of 12-95% RH using different saturated salt solutions to obtain a range of relative humidity. The salt solutions used and the corresponding relative humidity are tabulated below:
# (§2) The samples were held for 2 weeks at each humidity at 20° C. and analyzed by TGA for moisture content. The samples were also analyzed by FTIR to determine if spectroscopic changes were observed. Samples which increased in moisture content after 2 weeks were then moved to lower relative humidity to determine if the water uptake was reversible.
# A sample of the monohydrate form was also stressed with respect to humidity. Samples were stressed at 58-95% RH at 20° C. for 2 weeks.
# B) Thermal Gravimetric Analysis (TGA)
# Thermal Gravimetric Analysis was performed on the Perkin Elmer TGA-7 system. Samples were weighed into a platinum pan and scanned at a rate of 5° C./min. under nitrogen purge gas.
# [2] = Hysteresis / reversibility of water uptake on moving to lower relative humidity; type: physicochemical; details: for stability / reversion at low relative humidity: moved to humidity as low as 31% RH after 75-95% RH
# Protocol: as §2
# Hysteresis data (samples stored at high humidity were moved from high to low humidity) for samples stressed at 75-95% RH is shown in FIG. 1b. […] If the moisture was hygroscopic in nature one would expect the moisture level to decrease as the humidity level is decreased.
# [3] = Solubility in acetate buffer pH 4.8, 20° C.; type: physicochemical; details: for solubility (concentration in acetate buffer): 30 min
# Protocol: The solubility of unstressed hemihydrate, the monohydrate form and a sample which was equilibrated at 95% RH, i.e. tetrahydrate were compared in acetate buffer. A pH value of 4.8 was chosen. Approximately 250 mg of drug was added to 1 ml of solvent and agitated with a laboratory rotator at 20° C. The sample was filtered (0.45 micron) and diluted (200 ul to 25 ml). This solution was then diluted by a factor of 5 prior to UV analysis. Samples were analyzed at time points of 0.5, 3.0, and 24 hours with the Hewlett Packard 8451A diode array spectrophotometer. Absorbance was measured at 264 nm versus a standard prepared in acetate buffer. The solubility was determined (based on anhydrous drug) for two different samples (of each form) at each time point.
# [4] = Intrinsic dissolution rate in acetate buffer pH 4.8, 20° C.; type: physicochemical; details: for intrinsic dissolution rate (average slope): acetate buffer pH 4.8, 20° C., 100 RPM, triplicate
# Protocol: F) Intrinsic Dissolution Rate
# The intrinsic dissolution rates of hemihydrate, the monohydrate form and tetrahydrate form were determined in acetate buffer (pH=4.8) at 20° C. A disk (0.5 cm^2) was compressed under the following conditions: 225-250 mg drug, 4000 lbs pressure, and 30 seconds compaction time. The disk was dissolved in a Vander Kamp VK 6000 dissolution bath in 250 ml solvent at 100 RPM. Samples were withdrawn at 2, 4, 6, 8, 10 and 15 minutes and diluted by a factor of 2 for UV analysis. Samples were analyzed at 264 nm with the Hewlett Packard 8451A diode array spectrophotometer. Intrinsic dissolution plots were generated by plotting concentration/area vs. time and determining the slope by linear regression. Each dissolution experiment was run in triplicate.
# [5] = Crystal form change under humidity stress (FTIR, XRPD, TGA); type: physicochemical; details: for changes by TGA / FTIR at low relative humidity: 12-58% RH, 2 weeks; for crystal form change (FTIR, TGA): 75-85% RH (75% and 84% RH samples); for crystal form change (FTIR, XRPD, TGA): 95% RH
# Protocol: as §1, §2
# C) Fourier Transform Infrared Spectroscopy (FTIR)
# FTIR spectra were obtained on the Nicolet 730 system equipped with an MCT detector. Samples were run as KBr dispersions at approximately 1% concentration.
# D) X-Ray Powder Diffraction (XRPD)
# XRPD data was provided by Kodak Analytical Technology Division (Rochester, N.Y.) using a Rigaku RU 300 system at […].
# [6] = ambient temperature and humidity
# [7] = listed as disodium tiludronate hemihydrate, hemihydrate
smiles,measurement,setting,value
"O=P(O)(O)C(Sc1ccc(Cl)cc1)P(=O)(O)O [Tiludronate, disodium 4-chlorophenylthiomethylenebisphosphonate]",moisture content as relative humidity is increased,[1]; increasing RH,does not increase in moisture content as relative humidity is increased until a relative humidity is reached where crystalline changes occur
"O=P(O)(O)C(Sc1ccc(Cl)cc1)P(=O)(O)O [hemihydrate, disodium 4-chlorophenylthiomethylenebisphosphonate hemihydrate]",stability / reversion at low relative humidity,[2]; [7],did not revert at 31% RH
same,moisture level on moving stepwise to lower relative humidity (hysteresis),[2]; samples stressed at 75-95% RH,not reversible
same,solubility at 0.5 h,"[3]; acetate buffer, pH 4.8, aqueous buffer, pH 4.8, 20° C., 0.5 hours, based on anhydrous drug, read-out: solubility (concentration in acetate buffer)",147 mg/mL
same,solubility at 24 hours relative to tetrahydrate,"[3]; pH 4.8, 20° C., 24 hours",equivalent to the tetrahydrate
same,initial solubility relative to tetrahydrate,"[3]; pH 4.8, 20° C., initial",higher than the tetrahydrate form
same,FTIR analysis of residual solid in solubility samples,"[3]; pH 4.8, residual solid",conversion to the tetrahydrate
same,intrinsic dissolution rate (average slope),[4]; hemihydrate,0.0332 mg/(ml*cm^2 *min)
same,FTIR analysis of the disk at the end of the dissolution experiment,[4]; hemihydrate,conversion to the tetrahydrate form was occurring
same,water content (TGA analysis),"[1]; 12-58% RH, 20° C., 2 weeks",approximately 5%
same,water content,"[1]; 75% RH, 20° C., 2 weeks",8.4%
same,water content,"[1]; 84% RH, 20° C., 2 weeks",13.7%
same,moisture level / total weight loss (TGA),"[1]; 95% RH, 20° C., 2 weeks",16.4%
same,changes by TGA / FTIR at low relative humidity,[5]; hemihydrate,no changes in spectra
same,changes by TGA / FTIR at low relative humidity,[5]; [7],no changes by TGA and FTIR
same,"crystal form change (FTIR, TGA)",[5]; hemihydrate,partial change to monohydrate and tetrahydrate
same,"crystal form change (FTIR, TGA)",[5]; [7],partial transformation to the tetrahydrate form; also recorded: mixture of forms
same,"crystal form change (FTIR, XRPD, TGA)",[5]; hemihydrate,conversion of the hemihydrate to the tetrahydrate form; also recorded: significant change in the FTIR spectra and X-ray pattern indicative of crystalline rearrangement
same,"crystal form change (FTIR, XRPD, TGA)",[5]; [7],crystalline changes accompany the increase in moisture content; also recorded: changed to a tetrahydrate form
"O=P(O)(O)C(Sc1ccc(Cl)cc1)P(=O)(O)O [monohydrate, disodium 4-chlorophenylthiomethylene-bisphosphonate monohydrate]",solubility (concentration in acetate buffer),"[3]; pH 4.8, 20° C., 0.5 hours, based on anhydrous drug, monohydrate",175 mg/mL
same,intrinsic dissolution rate (average slope),[4]; monohydrate,0.0351 mg/(ml*cm^2 *min)
same,FTIR analysis of the disk at the end of the dissolution experiment,[4]; monohydrate,did not show transformation to the tetrahydrate
"O=P(O)(O)C(Sc1ccc(Cl)cc1)P(=O)(O)O [tetrahydrate, disodium 4-chlorophenylthiomethylenebisphosphonate]",stability / reversion at low relative humidity,[2],stability of the tetrahydrate form at humidity levels as low as 31% RH
same,solubility (concentration in acetate buffer),"[3]; pH 4.8, 20° C., 0.5 hours, based on anhydrous drug",140 mg/mL
same,intrinsic dissolution rate (average slope),[4],0.0359 mg/(ml*cm^2 *min)
same,"crystal form change (FTIR, XRPD, TGA)",[5],little evidence of the monohydrate form
same,conversion to monohydrate or hemihydrate,[6],not convened to either the monohydrate or hemihydrate form thereof at ambient temperature and humidity
